Earlier results on one compound are cited in publication PMC10769797 (The Oncologist, 2023).

One series has as its system POLR2A expression. Conditions: cited from earlier work.
Series [1] deals with patients with advanced solid tumors. Conditions: phase I study; cited from earlier work.

As for `CC1(C)CC[C@H](Nc2ncc(C(F)(F)F)c(-c3c[nH]c4c(P(C)(C)=O)c(C#N)ccc34)n2)CN1` [SY-5609], the “POLR2A expression change compared with baseline” value in the series with POLR2A expression (CDK7-target occupancy up to 100%) is recorded as 4-5 fold. Further, in the series with POLR2A expression (at 75% CDK7-target occupancy), the “POLR2A expression change in PBMCs” value is reported as “approximately 2.5 fold”. For the same compound, in series [1], the DLTs result was “cytopenia, gastrointestinal toxicity, and hypotension”; the “Most frequent TEAEs” value is “gastrointestinal toxicity, fatigue, thrombocytopenia, and anemia”.
